Consider eleven molecules from patent publication US20160052936A1, “SPIROINDOLINE DERIVATIVES FOR USE AS GONADOTROPIN-RELEASING HORMONE RECEPTOR ANTAGONISTS” (BAYER PHARMA AKTIENGESELLSCHAFT, priority 2013, published 2016).

The structures appear in SMILES notation.

In general, IC50 refers to the concentration that gives 50% inhibition. For orientation: half-life means the time needed for the level to fall by half in the phase considered. A low value points to rapid decline. As usually defined, the bioavailability is dose-corrected exposure relative to a reference, in per cent.

In series [1] the target is T1, human GnRHR (Homo sapiens, UniProt P30968).
T1 construct: own knowledge: Tag-lite cells usually carry an N-terminal SNAP-tag fusion; host or cells: Hek293 cells, transiently transfected, supplied frozen
T1 sequence (P30968 1-328): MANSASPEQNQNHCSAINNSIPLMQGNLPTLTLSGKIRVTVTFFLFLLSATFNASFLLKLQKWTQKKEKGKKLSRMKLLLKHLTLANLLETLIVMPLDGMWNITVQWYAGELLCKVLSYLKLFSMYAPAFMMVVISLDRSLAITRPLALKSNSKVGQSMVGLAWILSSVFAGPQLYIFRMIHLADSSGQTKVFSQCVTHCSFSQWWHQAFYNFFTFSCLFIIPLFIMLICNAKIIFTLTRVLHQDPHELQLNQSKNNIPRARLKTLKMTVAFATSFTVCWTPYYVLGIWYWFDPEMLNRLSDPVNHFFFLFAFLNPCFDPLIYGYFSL
The experiment in a line: Tag-Lite receptor binding assay. As to conditions: Hek293 cells transiently transfected with human GnRHR; displacement of green-labelled GnRHR binding peptide; read-out: Potency in receptor binding assay using TAG-LITE technology, given as IC50. The text has this: 2.2. Tag-Lite® Receptor Binding Assay
This binding assay is based on the fluorescence resonance energy transfer between fluorescence donor labelled human GnRHR and a green-labelled GnRHR binding peptide. Compounds interfering with the ligand binding side of the human GnRHR will replace the labelled peptide resulting in a signal decrease. The assay principle was established by Cisbio Bioassays (Bagnols-sur-Cèze Cedex, France) and further details are available on their homepage.
The assay procedure was further optimized for use in-house with reduced assay volumes. Frozen Hek293 cells, transiently transfected with human GnRHR and Terbium-labelling of the receptor, were supplied by Cisbio Bioassays as well as Tag-Lite buffer and green-labelled GnRHR binding peptide. Cells were thawed and transferred to cold Tag-Lite buffer. A volume of 8 μl of this cell suspension were added to 100 nl of a 160-fold concentrated solution of the test compound in DMSO pre-dispensed in a well of a white low-volume 384-well microtiter plate (Greiner Bio-One, Frickenhausen, Germany). The mixture was incubated for 5 min at room temperature. In the next step either 4 μl Tag-Lite buffer or as control 4 μl of an exceeding amount unlabelled binding peptide in Tag-Lite buffer were transferred to the mixture. The green-labelled GnRHR binding peptide was added in a final step at EC50 in a volume of 4 μl Tag-Lite buffer. After an incubation of 1 h at room temperature plates were measured in a microplate reader, e.g. a PHERAstar (BMG Labtechnologies, Offenburg, Germany) by using a specific optic module.
A ratio from the fluorescence emissions at 520 nm (green fluorescence) and at 490 nm (background signal of Terbium-labelled GnRHR) was calculated and the data were normalized (reaction without test compound=0% inhibition of binding of green-labelled peptide; reaction without test compound with exceeding amount unlabelled binding peptide=100% inhibition of binding of green-labelled peptide). On the same microtiter plate, compounds were tested at 10 different concentrations in the range of 12.5 μM to 0.64 nM (12.5 μM, 4.2 μM, 1.4 μM, 0.46 μM, 0.15 μM, 51 nM, 17 nM, 5.7 nM, 1.9 nM and 0.64 nM; dilution series prepared before the assay at the level of the 160-fold conc. stock solutions by serial 1:3 dilutions in 100% DMSO) in duplicate values for each concentration. By using an in-house software, the IC50 values were calculated by a 4 parameter fit.

The target in series [2] is T2, human GnRH receptor (Homo sapiens, UniProt P30968).
T2 construct: host or cells: CHO cells stably expressing human GnRH receptor (line established by Prof. Thomas Gudermann)
T2 sequence (P30968 1-328): T1 sequence (P30968 1-328)
Description: IP-One HTRF assay with buserelin stimulation. The series is classed as cell-based. As to conditions: CHO cells stably expressing human GnRH receptor; buserelin at EC80; read-out: Potency in IP-One HTRF assay with buserelin (at EC80) stimulation, given as IC50. The text has this: By using homogenous time-resolved fluorescence resonance energy transfer (HTRF), the generation of one component of the GnRH-R signalling cascade can be measured. After stimulation of CHO cells stably expressing human GnRH receptor (established by Prof. Thomas Gudermann, currently University of Marburg, Germany; supplied as frozen cell aliquots by Cell Culture Services, Hamburg, Germany) with the EC80 of the GnRH agonist buserelin, Gq protein-coupled receptor signalling cascade is activated resulting in PLC-dependent cleavage of PIP2 to Inositol-1,4,5-triphosphate (IP3) and Diacylglycerol. The second messenger IP3 is degraded intracellularly to myo-inositol. Inhibition of the final degradation step from Inositol-1-phosphate (IP1) to myo-inositol by addition of lithium chloride leads to accumulation of IP1 in the cells. In cell lysates, IP1 can be detected via an antibody-based HTRF detection technology, where IP1 can displace the FRET acceptor IP1-d2 from binding by Terbium-labelled anti-IP1 antibody as donor resulting in a signal decrease. Compounds were tested for their capability of inhibiting GnRH-R activation by buserelin. For all IP-One HTRF® assays reagents of Cisbio Bioassays (IP-One Tb Jumbo kit, #62IPAPEJ; Cisbio Bioassays, Bagnols sur Cèze Cedex, France) were used.
For the assay, frozen cell aliquots were thawed and a cell suspension (3.33×10^6 cells/mL) containing IP1-d2 (dilution 1:40) was prepared and incubated at 37° C. After 1 h 3 μl of the cell suspension were added to 50 nl of a 100-fold concentrated solution of the test compound in DMSO pre-dispensed in a well of a white low-volume 384-well microtiter plate (Greiner Bio-One, Frickenhausen, Germany). […] Plates were incubated for 1 h at 37° C. and 5% carbon dioxide before the cells were lysed by adding 3 μl Terbium-labelled anti-IP1 antibody (1:40) diluted in Conjugate & Lysis buffer as supplied with the kit. After an incubation for 1 h at 22° C. to enable complete cell lysis and antibody binding to free IP1 or IP1-d2, plates were measured in an HTRF reader, e.g. a RUBYstar, PHERAstar (both BMG Labtechnologies, Offenburg, Germany) or a Viewlux (PerkinElmer LAS, Rodgau-Jügesheim, Germany).
From the fluorescence emissions at 665 nm (FRET) and at 620 nm (background signal of Terbium-antibody), the ratio (emission at 665 nm divided by emission at 620 nm) was calculated and the data were normalized (reaction without test compound=0% inhibition; all other assay components except agonist=100% inhibition). On the same microtiter plate, compounds were tested at 10 different concentrations in the range of 20 μM to 1 nM (20 μM, 6.7 μM, 2.2 μM, 0.74 μM, 0.25 μM, 82 nM, 27 nM, 9.2 nM, 3.1 nM and 1 nM; dilution series prepared before the assay at the level of the 100-fold conc. stock solutions by serial 1:3 dilutions in 100% DMSO) in duplicate values for each concentration. By using an in-house software, the IC50 values were calculated by a 4 parameter fit.
Within the meaning of the present invention the antagonist activity is reflected by the ability of a compound of the invention to antagonize human GnRH receptor stimulation in IP-One HTRF® assay at least three times the standard deviation over the background level.
(In general: Time-resolved FRET reads energy transfer from a long-lived donor to a nearby acceptor.)

A short description of series [3]: In vivo pharmacokinetics in rats. As to conditions: Wistar, rat, plasma, po, male rats, 2 mg/kg p.o. On the procedure:
2.4 In Vivo Pharmacokinetics in Rats
For in vivo pharmacokinetic experiments test compounds were administered to male Wistar rats intravenously at a dose of 0.5 mg/kg and intragastral at a dose of 2 mg/kg formulated as solutions using solubilizers such as PEG400 or Solutol in well-tolerated amounts.
For pharmacokinetics after intravenous administration test compounds were given as i.v. bolus and blood samples were taken at 2 min, 8 min, 15 min, 30 min, 45 min, 1 h, 2 h, 4 h, 7 h and 24 h after dosing. […] For pharmacokinetics after intragastral administration test compounds were given intragastral to fasted rats and blood samples were taken at 8 min, 15 min, 30 min, 45 min, 1 h, 2 h, 4 h, 7 h and 24 h after dosing. […] Blood was collected into Lithium-Heparintubes (Monovetten®, Sarstedt) and centrifuged for 15 min at 3000 rpm. An aliquot of 100 μL from the supernatant (plasma) was taken and precipitated by addition of 400 μL cold acetonitril and frozen at −20° C. over night. Samples were subsequently thawed and centrifuged at 3000 rpm, 4° C. for 20 minutes. Aliquots of the supernatants were taken for analytical testing using an Agilent 1200 HPLC-system with LCMS/MS detection. PK parameters were calculated by non-compartmental analysis using a PK calculation software.
PK parameters derived from concentration-time profiles after i.v.: CLplasma: Total plasma clearance of test compound (in L/kg/h); CLblood: Total blood clearance of test compound: CLplasma*Cp/Cb (in L/kg/h) with Cp/Cb being the ratio of concentrations in plasma and blood. PK parameters calculated from concentration time profiles after i.g.: Cmax: Maximal plasma concentration (in mg/L); Cmaxnorm: Cmax divided by the administered dose (in kg/L); Tmax: Time point at which Cmax was observed (in h). Parameters calculated from both, i.v. and i.g. concentration-time profiles: AUCnorm: Area under the concentration-time curve from t=0 h to infinity (extrapolated) divided by the administered dose (in kg*h/L); AUC(0−tlast)norm: Area under the concentration-time curve from t=0 h to the last time point for which plasma concentrations could be measured divided by the administered dose (in kg*h/L); t½: terminal half-life (in h); F: oral bioavailability: AUCnorm after intragastral administration divided by AUCnorm after intravenous administration (in %).

On to `N#Cc1ccc(S(=O)(=O)N2c3ccc(C(=O)NCc4ncc(C(F)(F)F)cc4Cl)cc3C3(CCS(=O)(=O)CC3)C2C2CC2)cc1` (racemic) [Example 8, N-{[3-chloro-5-(trifluoromethyl)pyridin-2-yl]methyl}-1-[(4-cyanophenyl)sulfonyl]-2-cyclopropyl-1,2,2′,3′,5′,6′-hexahydrospiro[indole-3,4′-thiopyran]-5-carboxamide 1′,1′-dioxide], for which the figures for the IC50 in series [1] and in series [2] were 21.7 nM and 22 nM, respectively.
Regarding `O=C(NCc1ncc(C(F)(F)F)cc1F)c1ccc2c(c1)C1(CCS(=O)(=O)CC1)C(C1CC1)N2S(=O)(=O)c1ccc(Cl)cc1` (racemic) [Example 18, 1-[(4-chlorophenyl)sulfonyl]-2-cyclopropyl-N-{[3-fluoro-5-(trifluoromethyl)pyridin-2-yl]methyl}-1,2,2′,3′,5′,6′-hexahydrospiro[indole-3,4′-thiopyran]-5-carboxamide 1′,1′-dioxide], the IC50 in series [2] was found to be 65 nM.
Consider `O=C(NCc1ncc(C(F)(F)F)cc1Cl)c1ccc2c(c1)C1(CCS(=O)(=O)CC1)C(C1CC1)N2S(=O)(=O)c1ccc(Cl)cc1` (racemic) [Example 19, 1-[(4-chlorophenyl)sulfonyl]-N-{[3-chloro-5-(trifluoromethyl)pyridin-2-yl]methyl}-2-cyclopropyl-1,2,2′,3′,5′,6′-hexahydrospiro[indole-3,4′-thiopyran]-5-carboxamide 1′,1′-dioxide], for which the IC50 in series [2] is 31 nM.
Turning to `O=C(NCc1ncc(C(F)(F)F)cc1F)c1ccc2c(c1)C1(CCS(=O)(=O)CC1)[C@@H](C1CC1)N2S(=O)(=O)c1ccc(F)cc1` (single isomer, unassigned) [Example 1.2], in series [2], the IC50 was 6990 nM.
Still for that read-out and setting: for `N#Cc1ccc(S(=O)(=O)N2c3ccc(C(=O)NCc4ncc(C(F)(F)F)cc4F)cc3C3(CCS(=O)(=O)CC3)C2C2CC2)cc1` (single isomer, unassigned) [Example 7.2] the value was 57 nM.
Regarding `N#Cc1ccc(S(=O)(=O)N2c3ccc(C(=O)NCc4ncc(C(F)(F)F)cc4Cl)cc3C3(CCS(=O)(=O)CC3)[C@@H]2C2CC2)cc1` (single isomer, unassigned) [Example 8.1], in series [2], the IC50 was found to be 10 nM. The molecule also gave a half-life in series [3] of 5 h. Also, the bioavailability in series [3] (AUCnorm intragastral / AUCnorm i.v. (0.5 mg/kg), read-out: F (oral bioavailability)) came out at 17%.
Consider `N#Cc1ccc(S(=O)(=O)N2c3ccc(C(=O)NCc4ncc(C(F)(F)F)cc4Cl)cc3C3(CCS(=O)(=O)CC3)[C@H]2C2CC2)cc1` (single isomer, unassigned) [Example 8.2], for which the IC50 in series [2] amounted to 3560 nM.
The same measure, in the same setting: the figure for `N#Cc1cccc(S(=O)(=O)N2c3ccc(C(=O)NCc4ncc(C(F)(F)F)cc4Cl)cc3C3(CCS(=O)(=O)CC3)[C@H]2C2CC2)c1` (single isomer, unassigned) [Example 10.2] is 1970 nM; for `O=C(NCc1ncc(C(F)(F)F)cc1Cl)c1ccc2c(c1)C1(CCS(=O)(=O)CC1)C(C1CC1)N2S(=O)(=O)c1ccc(OC(F)F)cc1` (single isomer, unassigned) [Example 16.2] it is 879 nM; for `NC(=O)c1ccc(S(=O)(=O)N2c3ccc(C(=O)NCc4ncc(C(F)(F)F)cc4Cl)cc3C3(CCS(=O)(=O)CC3)C2C2CC2)cc1` (single isomer, unassigned) [Example 17.1] it is greater than 20000 nM.
Still for that read-out and setting: the figure for `O=C(NCc1ncc(C(F)(F)F)cc1F)c1ccc2c(c1)C1(CCS(=O)(=O)CC1)C(C1CC1)N2S(=O)(=O)c1ccc(Cl)cc1` (single isomer, unassigned) [Example 18.1] is 31 nM.
